Source: PubChem BioAssay (NCI)
Several values for one entry are separate records, joined by “and”; a condition that tells them apart may be missing. Identical values can stand only once.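 Interpolation was linear, between the two tested concentrations surrounding the appropriate level; five concentrations were tested over 48 hours in 96-well plates. GI50: concentration for 50% inhibition of growth. At the TGI there is no net growth.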 *1 amine or outer side, *2 acyl side, *3 side chain or, on linkers, in order; H or OH if unused. Where a SMILES comes first, the peptide text is derived from it. Bridges are numbered along the chain shown (N, C = ends). [ ]: non-standard residue; d: D form. The star is where a group is joined. Phe(3-Me) = Cc1cccc(C[C@H](N)C(=O)O)c1; NH(4-Cl-2-F-phenyl) = Fc1cc(Cl)ccc1N*; Pro(4R-Me) = C[C@H]1CN[C@H](C(=O)O)C1; Propanoyl(3-NMe2) = CN(C)CCC(=O)*; Hyp = O=C(O)[C@@H]1C[C@@H](O)CN1; aThr = C[C@H](O)[C@H](N)C(=O)O; Pip = O=C(O)[C@@H]1CCCCN1; CO = O=C([*:1])[*:2]

How the values were obtained:
Experiment in all cases: NCI anticancer screen, dose series, 48 h
[1] = test system: BT-549 breast
[2] = test system: MDA-N
[3] = test system: DLD-1 colon
[4] = test system: DMS 114 small cell lung
[5] = test system: SNB-78 CNS
[6] = test system: KM20L2 colon
[7] = test system: XF 498 CNS
[8] = test system: HOP-18 NSCLC

CCCCCCCCCC(CCCC(O)CC(=O)O)OC1OC(COC2OC(C)C(O)C(O)C2O)C(O)C(O)C1OC1OC(CO)C(O)C(O)C1OC1OC(C)C(O)C(O)C1O (configuration not stated)
GI50 [1]: > 40 µM | TGI [1]: > 40 µM

COc1cc(C2C(C#N)=C(N)Oc3cc(O)ccc32)cc(OC)c1OC (configuration not stated)
GI50 [1]: 0.419 µM | TGI [1]: 33.3 µM

CC([O-])C(=O)[O-].NCC1CCC1CN.[Pt+4] (configuration not stated)
GI50 [2]: > 10 µM | TGI [2]: > 10 µM | GI50 [1]: > 10 µM | TGI [1]: > 10 µM

COC(=O)C1C2CCCN2OC1(C)CO (configuration not stated)
TGI [2]: > 100 µM | TGI [1]: > 100 µM

COc1ccc(-c2coc3cc(OC)cc(O)c3c2=O)cc1
TGI [2]: > 100 µM

CC[C@@]1(O)C(=O)OCc2c1cc1n(c2=O)Cc2c-1nc1ccccc1c2/C=N/OC(C)(C)C
GI50 [1]: < 0.0139 µM | TGI [1]: 2.02 µM

CC/C=C\C/C=C\C[C@H]1C/C=C2/C(=O)C=C[C@H]2C/C=C\CCC(=O)O1
GI50 [1]: 3.68 µM | TGI [1]: 10.1 µM

CCCN1CCN(c2ccc3nc(-c4ccc5nc(-c6ccc(OCC)c(OCC)c6)[nH]c5c4)[nH]c3c2)CC1
GI50 [1]: 1.13 µM | TGI [1]: 2.61 µM

S=C(N/N=C(/c1ccccc1)c1ccccn1)Nc1cccc(Cl)c1
GI50 [2]: 1.14 µM | TGI [2]: 7.35 µM and 6.85 µM | TGI [1]: 6.22 µM

Cc1ccc(C2=C(c3ccccc3)C(O)(c3ccc(C)cc3)C(c3ccccc3)=C2c2ccc(C)cc2)cc1
TGI [3]: > 100 µM | TGI [4]: > 100 µM | TGI [5]: > 100 µM | TGI [6]: > 100 µM | TGI [7]: > 100 µM

COc1ccc(CNc2nc(NCc3ccc(OC)cc3)c3n[nH]c(C(C)C)c3n2)cc1
GI50 [1]: 3.47 µM | TGI [1]: 12.2 µM

CCc1ccc(Nc2cc(C)nc3nc(C)nn23)cc1
GI50 [1]: > 100 µM | TGI [1]: > 100 µM

COc1ccc(C(=O)O)c(Cc2ccc3ccccc3c2)c1
TGI [3]: > 100 µM | TGI [4]: > 100 µM | TGI [5]: > 100 µM | TGI [6]: > 100 µM | TGI [8]: > 100 µM | TGI [7]: > 100 µM

C/C(=N\NC(=O)c1ccncc1)c1ccc(O)cc1O
GI50 [1]: > 100 µM | TGI [1]: > 100 µM

Cc1cccc(C[C@H](NC(=O)Nc2ccc(Cl)cc2F)C(=O)N[C@@H]2C(=O)N3C[C@H](OC(=O)CCN(C)C)C[C@H]3C(=O)N3CCCC[C@H]3C(=O)N[C@@H](C)C(=O)N3C[C@H](C)C[C@H]3C(=O)O[C@H]2C)c1 ({NH(4-Cl-2-F-phenyl)-CO}-[Phe(3-Me)][aThr][Hyp](Propanoyl(3-NMe2))[Pip]A[Pro(4R-Me)]; ester 2-C)
GI50 [1]: 0.526 µM | TGI [1]: 2.48 µM

C=C(CN1CCN(c2cccc(F)c2)CC1)c1ccc(C(=O)Nc2ccccc2N)cc1
GI50 [1]: 1.33 µM | TGI [1]: 12.6 µM

CN1CCCCC1CCN1c2ccccc2Sc2ccc(S(C)=O)cc21 (configuration not stated)
TGI [2]: > 100 µM | TGI [1]: > 100 µM

CN(C)CCC1(C2=CCCC2)CC/C(=C\c2ccccc2)C1=O (configuration not stated)
TGI [3]: 37.5 µM | TGI [4]: 33.2 µM | TGI [5]: 46.2 µM | TGI [6]: 26 µM | TGI [8]: 29.2 µM

O=c1cccc(C#CC#C/C=C/CO)o1
GI50 [1]: 2.1 µM | TGI [1]: 5.17 µM

COc1cc2c3c(c4c5ccccc5[nH]c4c2c(OC)c1OC)C(=O)N(CCN1CCCCC1)C3=O
GI50 [1]: 4.6 µM | TGI [1]: 13.4 µM

O=C1OC2C(O)C(=O)OC2C1O (configuration not stated)
TGI [2]: > 100 µM

O=C([O-])c1ccccc1Nc1ccccc1[O-].[Ni+3].[OH3+].[OH3+].[OH3+]
GI50 [3]: > 100 µM | TGI [3]: > 100 µM | GI50 [4]: > 100 µM | TGI [4]: > 100 µM | GI50 [5]: > 100 µM | TGI [5]: > 100 µM

CCN(CC)CC(O)C1CCC(c2ccccc2)CC1 (configuration not stated)
TGI [2]: 41.8 µM

Cn1c(=S)sc2nc3ccccc3n2c1=S
TGI [2]: 38.5 µM

O=CC1(C2(C=O)c3ccccc3-c3ccccc32)c2ccccc2-c2ccccc21
GI50 [1]: 2.01 µM | TGI [1]: 4.84 µM

Cc1cccc(NC(=O)CC#N)c1Cl
TGI [3]: > 100 µM | TGI [5]: > 100 µM | TGI [6]: > 100 µM | TGI [7]: > 100 µM

CSc1nc2c(c(=O)[nH]1)C(c1ccc(Cl)cc1)C1=C(N2)/C(=C/c2ccc(Cl)cc2)CNC1 (configuration not stated)
GI50 [1]: 1.8 µM | TGI [1]: 3.68 µM

COc1ccc(C#CCC(OC2OC(CO)C(O)C(O)C2O)C(O)c2ccc(OC)c(OC)c2)cc1OC (configuration not stated)
TGI [3]: > 100 µM | TGI [5]: > 100 µM | TGI [6]: > 100 µM | TGI [8]: > 100 µM

COc1ccc(CC2C3=C(CCCC3)CCN2C)cc1 (configuration not stated)
TGI [2]: > 100 µM

O=C1c2ccccc2C(=O)c2c1ccc1c2OCO1
TGI [2]: > 100 µM | TGI [1]: > 100 µM

NC[C@@](O)(c1ccc(Cl)cc1)c1ccc(-c2cn[nH]c2)cc1
GI50 [1]: 0.892 µM and 1.13 µM | TGI [1]: 3.91 µM and 7.63 µM

C=C1N(C)c2ccc(Cl)cc2C1(C)C
GI50 [1]: 3.35 µM | TGI [1]: 22.3 µM

CNC1C(OC2C(OC3C(O)C(O)C(O)C(O)C3O)OC(C)C2(O)CO)OC(CO)C(O)C1O (configuration not stated) (tested in a mixture with another compound)
TGI [2]: > 100 µM | TGI [1]: > 100 µM

CCSc1nc2n(c(=S)n1)CCN2C
TGI [4]: 39.4 µM | TGI [6]: 52.9 µM

CC(=O)c1ccc(NCN2C(=O)c3ccccc3C2=O)cc1
TGI [2]: > 100 µM | TGI [1]: > 100 µM

CCN1CCN(C(=O)[C@]23CCC(C)(C)C[C@@H]2C2=CC[C@@H]4[C@@]5(C)C/C(=C/c6cccnc6)C(=O)C(C)(C)[C@@H]5CC[C@@]4(C)[C@]2(C)CC3)CC1
GI50 [1]: 1.47 µM | TGI [1]: 2.88 µM

CCN(CC(COc1ccc2c(c1)[n+]([O-])nc(N)[n+]2[O-])OC(C)=O)C(C)=O (configuration not stated)
TGI [2]: > 100 µM | TGI [1]: > 100 µM

O=C(CCl)Nc1ccc2c(c1)C(=O)c1ccc(NC(=O)CCl)cc1C2=O
GI50 [1]: 0.22 µM | TGI [1]: 0.857 µM

CC1=CC2C(C(C)C)CC1C1C(=O)OC(=O)C21 (configuration not stated)
TGI [1]: > 100 µM

N=c1ccn2c(n1)O[C@@H]1[C@@H](O)[C@H](CO)O[C@@H]12
GI50 [1]: 41.3 µM | TGI [1]: > 100 µM

O=C(O)C1OC(Oc2cc(O)c3c(=O)cc(-c4ccc(O)cc4)oc3c2)C(O)C(O)C1O (configuration not stated)
TGI [3]: > 100 µM | TGI [4]: > 100 µM | TGI [5]: > 100 µM | TGI [6]: > 100 µM | TGI [7]: 83 µM

CC(C)Oc1ccc(C(=O)N[C@H](CNC(=O)CN(C)C)Cc2ccc(-c3cn4cccc([C@H](C)O)c4n3)cc2)cc1Cl
GI50 [1]: 0.068 µM | TGI [1]: 17.6 µM

C[C@]12CC[C@H]3[C@@H](C[C@@H]4N=C(c5ccc(O)cc5)S[C@@]45C[C@H](O)CC[C@]35C)[C@@H]1CC[C@@H]2O
GI50 [1]: 1.14 µM | TGI [1]: 19.4 µM

O=C(Nc1ccc(Br)cc1F)c1cc(Br)ccc1O
GI50 [1]: 0.403 µM | TGI [1]: 3.25 µM

O=C(CN1CCN(c2ccc(Cl)cc2)CC1)N1CCN(c2nnc(-c3ccccc3)c(-c3ccccc3)n2)CC1
GI50 [1]: 3.14 µM | TGI [1]: > 100 µM

Cc1ccccc1/C=C1\CN(C(=O)OC(C)(C)C)C/C(=C\c2ccccc2C)C1=O
GI50 [1]: 2.3 µM | TGI [1]: 6.61 µM

CN1CCCN(C(c2ccccc2)c2ccc(Br)cc2)CC1 (configuration not stated)
GI50 [1]: 4.89 µM | TGI [1]: 19.4 µM

O=C1C(N2C(=O)c3ccccc3C2=O)CN1C(COCc1ccccc1)c1ccc(OCc2ccccc2)cc1 (configuration not stated)
TGI [3]: > 100 µM | TGI [4]: > 100 µM | TGI [5]: > 100 µM | TGI [6]: > 100 µM | TGI [7]: > 100 µM

CC1=C(C(=O)Nc2ccccc2C)C(c2ccc(C3C(C(=O)Nc4ccccc4C)=CNC=C3C(=O)Nc3ccccc3C)cc2)C(C(=O)Nc2ccccc2C)=C(C)N1
TGI [3]: 37.4 µM | TGI [4]: > 60.5 µM | TGI [5]: 96.4 µM | TGI [6]: 28.6 µM | TGI [8]: > 76 µM | TGI [7]: 41.6 µM

Cc1nc2cc(N)c(Cl)cc2[nH]1
TGI [2]: > 100 µM | TGI [1]: > 100 µM

Cc1ccc(S(=O)(=O)n2cc(-c3nnnn3-c3ccc(Cl)cc3)c(=O)c3ccccc32)cc1
GI50 [1]: > 100 µM | TGI [1]: > 100 µM

O=C(/C=C/c1cccnc1)c1ccccc1O
GI50 [1]: 14.2 µM | TGI [1]: 28.5 µM

CC(O[Si](C)(C)C)C1C=CC(C)n2c(=O)n(-c3ccccc3)c(=O)n21 (configuration not stated)
TGI [3]: > 100 µM | TGI [4]: > 100 µM | TGI [5]: > 100 µM | TGI [8]: > 100 µM

COC(=O)C(Cc1nc2ccccc2[nH]c1=O)C(=O)C(=O)Nc1ccc(OC)cc1[N+](=O)[O-] (configuration not stated)
TGI [5]: > 100 µM | TGI [6]: > 100 µM | TGI [7]: > 100 µM

COc1ccc(/C=C/C(=O)c2ccc(Nc3ccnc4cc(Cl)ccc34)cc2)cc1
GI50 [1]: > 100 µM | TGI [1]: > 100 µM

O=c1/c(=C/c2ccc3c(c2)OCO3)sc2nnc(-c3ccco3)n12
TGI [3]: > 100 µM | TGI [4]: > 100 µM | TGI [5]: > 100 µM | TGI [6]: > 100 µM | TGI [8]: > 100 µM | TGI [7]: > 100 µM

CC[C@]12CCCN3CC[C@]4(C(=C(C(=O)OC)C1)Nc1ccccc14)[C@@H]32
GI50 [1]: 19.8 µM | TGI [1]: 46.7 µM

O=[N+]([O-])c1ccc(-c2cn(-c3ccc(Cl)cc3)cn2)cc1
TGI [2]: > 100 µM | TGI [1]: > 100 µM

COc1cc(NC(N)=NCCC(C)(C)c2ccc(C(F)(F)F)cc2)ncc1C#N
GI50 [1]: 1.74 µM | TGI [1]: 3.21 µM

COc1ccc(Cn2c(Br)c3c(c2-c2cc(OC)c(OC)c(OC)c2)CCc2sc(NC(C)=O)nc2-3)cc1
GI50 [1]: 3.18 µM | TGI [1]: 19.4 µM
